Test results reported in patent publication US20260285850A1, “SUBSTITUTED OXAZOLIDINONES AND IMIDAZOLINONES AS HERBICIDES” (FMC CORPORATION, priority 2023, published 2026).

Tests used:
Assay type in all cases: in vivo
corn (Zea mays) [1] = test: Test A preemergence soil spray, visual injury rating 0-100; details: 10 days, 0 = no effect, 100 = complete control
How it was run: (§1)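 Greenhouse test: loam/sand pots received a surfactant-containing formulation, as a preemergence directed soil spray or a postemergence spray on young plants. Injury was judged visually at day 10 relative to untreated controls.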

[2] = system: palmer (palmer amaranth, palmer pigweed, Amaranthus palmeri); test: as above; details: 10 days, 0 = no effect, 100 = complete control
How it was run: as §1

[3] = system: ryegrass, Italian (italian ryegrass, Lolium multiflorum); test: as above; details: 10 days, 0 = no effect, 100 = complete control
How it was run: as §1

[4] = system: wheat (Triticum aestivum); test: as above; details: 10 days, 0 = no effect, 100 = complete control
How it was run: as §1

[5] = system: barnyardgrass (Echinochloa crus-galli); test: as above; details: 10 days, 0 = no effect, 100 = complete control
How it was run: as §1

[6] = system: blackgrass (Alopecurus myosuroides); test: as above; details: 10 days, 0 = no effect, 100 = complete control
How it was run: as §1

[7] = system: oat, wild (wild oat, Avena fatua); test: as above; details: 10 days, 0 = no effect, 100 = complete control
How it was run: as §1

[8] = system: green foxtail (Setaria viridis); test: as above; details: 10 days, 0 = no effect, 100 = complete control
How it was run: as §1

soybean (Glycine max) [9] = test: as above; details: 10 days, 0 = no effect, 100 = complete control
How it was run: as §1

[10] = system: ragweed (common ragweed, Ambrosia artemisiifolia); test: as above; details: 10 days, 0 = no effect, 100 = complete control
How it was run: as §1

kochia (Bassia scoparia) [11] = test: as above; details: 10 days, 0 = no effect, 100 = complete control
How it was run: as §1

rice (Oryza sativa) = test: Test B flooded paddy test, visual plant response rating 0-100; details: 250 g ai/ha, Flood, applied to paddy water, evaluated after 13 days
How it was run: (§2)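 Treatment occurs at the 2-leaf stage by adding compound to floodwater standing 3 cm above the soil, a level kept for the whole test. Plants stay in the greenhouse 13 days before visual comparison with controls.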

[12] = system: barnyardgrass (Echinochloa crusgalli); test: as above; details: 250 g ai/ha, Flood, applied to paddy water, evaluated after 13 days
How it was run: as §2

[13] = system: ducksalad (Heteranthera limosa); test: as above; details: 250 g ai/ha, Flood, applied to paddy water, evaluated after 13 days
How it was run: as §2

[14] = system: sedge, umbrella (small-flower umbrella sedge, Cyperus difformis); test: as above; details: 250 g ai/ha, Flood, applied to paddy water, evaluated after 13 days
How it was run: as §2

[15] = system: galium (catchweed bedstraw, Galium aparine); test: Test A postemergence application, visual injury rating 0-100; details: 10 days
How it was run: as §1

corn (Zea mays) [16] = test: as above; details: 10 days
How it was run: as §1

[17] = system: palmer (palmer amaranth, palmer pigweed, Amaranthus palmeri); test: as above; details: 10 days
How it was run: as §1

[18] = system: ryegrass, Italian (italian ryegrass, Lolium multiflorum); test: as above; details: 10 days
How it was run: as §1

[19] = system: wheat (Triticum aestivum); test: as above; details: 10 days
How it was run: as §1

[20] = system: barnyardgrass (Echinochloa crus-galli); test: as above; details: 10 days
How it was run: as §1

[21] = system: blackgrass (Alopecurus myosuroides); test: as above; details: 10 days
How it was run: as §1

[22] = system: oat, wild (wild oat, Avena fatua); test: as above; details: 10 days
How it was run: as §1

[23] = system: green foxtail (Setaria viridis); test: as above; details: 10 days
How it was run: as §1

[24] = system: horseweed (Erigeron canadensis); test: as above; details: 10 days
How it was run: as §1

soybean (Glycine max) [25] = test: as above; details: 10 days
How it was run: as §1

[26] = system: ragweed (common ragweed, Ambrosia artemisiifolia); test: as above; details: 10 days
How it was run: as §1

kochia (Bassia scoparia) [27] = test: as above; details: 10 days
How it was run: as §1

[28] = 31 g ai/ha, postemergence, 0 = no effect, 100 = complete control
[29] = Postemergence, 125 g ai/ha, 0 is no effect, 100 is complete control

Compound: CCOC(=O)C1CC(NC(=O)C2(C)CN(c3cc(F)cc(F)c3)C(=O)O2)CO1 (stereo not shown) [Compound 31]
- Corn plant response rating (0-100) (corn (Zea mays) [1]; 31 g ai/ha): 0
- Corn plant response rating (0 to 100 scale) (corn (Zea mays) [1]; 125 g ai/ha): 0
- Amaranth, Palmer plant response rating (0-100) ([2]; 31 g ai/ha): 0
- Amaranth, Palmer plant response rating (0 to 100 scale) ([2]; 125 g ai/ha): 10
- Ryegrass, Italian plant response rating (0-100) ([3]; 31 g ai/ha): 0
- Ryegrass, Italian plant response rating (0 to 100 scale) ([3]; 125 g ai/ha): 60
- Wheat plant response rating (0-100) ([4]; 31 g ai/ha): 0
- Wheat plant response rating (0 to 100 scale) ([4]; 125 g ai/ha): 90
- Barnyardgrass plant response rating (0-100) ([5]; 31 g ai/ha): 0
- Barnyardgrass plant response rating (0 to 100 scale) ([5]; 125 g ai/ha): 0
- Blackgrass plant response rating (0-100) ([6]; 31 g ai/ha): 20
- Blackgrass plant response rating (0 to 100 scale) ([6]; 125 g ai/ha): 30
- Oat, Wild plant response rating (0-100) ([7]; 31 g ai/ha): 0
- Oat, Wild plant response rating (0 to 100 scale) ([7]; 125 g ai/ha): 30
- Foxtail, Green plant response rating (0-100) ([8]; 31 g ai/ha): 0
- Foxtail, Green plant response rating (0 to 100 scale) ([8]; 125 g ai/ha): 0
- Soybean plant response rating (0-100) (soybean (Glycine max) [9]; 31 g ai/ha): 0
- Soybean plant response rating (0 to 100 scale) (soybean (Glycine max) [9]; 125 g ai/ha): 0
- Ragweed plant response rating (0-100) ([10]; 31 g ai/ha): 0
- Ragweed plant response rating (0 to 100 scale) ([10]; 125 g ai/ha): 0
- Kochia plant response rating (0-100) (kochia (Bassia scoparia) [11]; 31 g ai/ha): 0
- Kochia plant response rating (0 to 100 scale) (kochia (Bassia scoparia) [11]; 125 g ai/ha): 0
- Plant response rating, Rice (0 to 100 scale, 0 is no effect and 100 is complete control) (rice (Oryza sativa)): 0
- Plant response rating, Barnyardgrass (0 to 100 scale, 0 is no effect and 100 is complete control) [12]: 0
- Plant response rating, Ducksalad (0 to 100 scale, 0 is no effect and 100 is complete control) [13]: 0
- Plant response rating, Sedge, Umbrella (0 to 100 scale, 0 is no effect and 100 is complete control) [14]: 0
- Galium plant response rating (0-100) [15, 28]: 60
- Galium plant response rating (0 to 100 scale) [15, 29]: 70
- Corn plant response rating (0-100) (corn (Zea mays) [16]; [28]): 0
- Corn plant response rating (0 to 100 scale) (corn (Zea mays) [16]; [29]): 50
- Amaranth, Palmer plant response rating (0-100) [17, 28]: 0
- Amaranth, Palmer / Pigweed, Palmer plant response rating (0 to 100 scale) [17, 29]: 20
- Ryegrass, Italian plant response rating (0-100) [18, 28]: 60
- Ryegrass, Italian plant response rating (0 to 100 scale) [18, 29]: 90
- Wheat plant response rating (0-100) [19, 28]: 90
- Wheat plant response rating (0 to 100 scale) [19, 29]: 90
- Barnyardgrass plant response rating (0-100) [20, 28]: 10
- Barnyardgrass plant response rating (0 to 100 scale) [20, 29]: 90
- Blackgrass plant response rating (0-100) [21, 28]: 90
- Blackgrass plant response rating (0 to 100 scale) [21, 29]: 100
- Oat, Wild plant response rating (0-100) [22, 28]: 80
- Oat, Wild plant response rating (0 to 100 scale) [22, 29]: 90
- Foxtail, Green plant response rating (0-100) [23, 28]: 0
- Foxtail, Green plant response rating (0 to 100 scale) [23, 29]: 80
- Horseweed plant response rating (0-100) [24, 28]: 0
- Horseweed plant response rating (0 to 100 scale) [24, 29]: 0
- Soybean plant response rating (0-100) (soybean (Glycine max) [25]; [28]): 10
- Soybean plant response rating (0 to 100 scale) (soybean (Glycine max) [25]; [29]): 60
- Ragweed plant response rating (0-100) [26, 28]: 30
- Ragweed plant response rating (0 to 100 scale) [26, 29]: 50
- Kochia plant response rating (0-100) (kochia (Bassia scoparia) [27]; [28]): 0
- Kochia plant response rating (0 to 100 scale) (kochia (Bassia scoparia) [27]; [29]): 70
